Consider 2 molecules from patent US20220340976A1, “RAPID PREDICTION OF DRUG RESPONSIVENESS” (THE BROAD INSTITUTE, INC., priority 2019, published 2022).

“Also recorded” adds a separate entry of the source.

In experiment [1] the test system is pools of well-characterized cancer cell lines. Description: MIX-Seq: scRNA-seq transcriptional response profiling of drug-treated cell line pools. The class given is cell-based, human. The method, then:
Cell line pools were made in sets of 25 cell lines. These 25 cell line pools were chosen based on doubling time and were grown in RPMI in the absence of phenol red and with 10% FBS. Cell lines were then washed with 10 mLs of PBS, and trypsinized with 1 mL trypsin which was then removed. Ten mLs of RPMI media were added to the cells post trypsinization and resuspended. Cells were then counted by a Nexcelom cellometer using 10 uL of cell suspension and 10 ul of Trypan blue. Equal numbers of cells per cell line were mixed together and spun down at 1,250 RPM for 5 minutes. Media was aspirated and the cells were resuspended in Sigma Cell Freezing media and frozen in 1 mL aliquots. This process was repeated for all of the 25 cell line pools. For MIX-Seq experiments involving larger pools, multiple 25 cell line pools were thawed in RPMI with 10% FBS, spun down and resuspended in 5 mLs of RPMI media. Cells were then counted and equal numbers were combined together on the day of plating to form larger pools of up to ˜100 cell lines.
For drug treatment experiments, cell line pools were cultured in RPMI containing 10% fetal bovine serum, in the absence of phenol red and penicillin/streptomycin. Cell line pools were validated as Mycoplasma free prior to initiating the experiment. Cell line pools were plated at 200,000 cells per well in 6 well plates containing 2 mL of RPMI culture media described above. […] Cell pools were plated ˜16-20 hours prior to drug treatment. Cells were treated with the described drugs or vehicle (DMSO) with a 0.2% final media DMSO concentration.
Generally cells were harvested after drug treatment using standard cell culture methods. Briefly, after drug treatment cells that were in suspension (presumably containing dead cells from drug treatment) were collected and reserved for addition to the adherent cell fraction. Adherent cells were washed once with 1×PBS, trypsinized in 1 mL trypsin, incubated for 3-7 minutes at 37 C, and then trypsin inactivated with 1 mL growth media. For Cell Hashing, cells were treated with TrypLE Express (ThermoFisher) instead of trypsin to reduce the amount of cell surface proteins digested that may affect the binding of Cell Hashing antibodies.
After trypsinization, adherent and suspension cells were combined for each treatment, pelleted, and resuspended in Cell Capture Buffer (lx PBS with 0.04% BSA). Cells were counted (including trypan blue non-viable cells) and resuspended at a concentration of 1,000 cells per microliter for standard loading on the Chromium Controller (10× Genomics), or at 1,500 cells per microliter for “super loaded” samples. Up to 40,000 cells were loaded per 10× channel for “super loaded” samples, with expected recovery of up to 20,000 cells per channel. Cell suspensions were captured on a 10× Chromium controller using Single Cell 3′ reagent chemistries (either version 2 or and version 3 reagents) FIG. 26.
Sequencing data were processed using 10× Cell Ranger software, run using the Cumulus cloud-based analysis framework (Li et al. 2019). Initial experiments were done with 10× Single Cell 3′ v2 chemistry, and were processed using version 2 of the Cell Ranger software. In later experiments v3 chemistry and the corresponding version 3 of Cell Ranger were used. Reads were aligned to the hg19 reference genome.
To estimate the average transcriptional response of each cell line to a perturbation, the data were first ‘sum-collapsed’—summing read counts across cells for each cell line and treatment condition—to produce a bulk RNA-seq style read counts profile for each sample (Crowell et al. 2019; Lun & Marioni 2017). […]

For experiment [2], the system named is pools of cancer cell lines. In words: Relative cell line abundance estimated from pooled scRNA-seq. It counts as cell-based, human. Particulars: particularly 24 hours post-treatment. An excerpt:
Estimates of the effects of perturbations on relative cell line abundance were obtained by counting the number of (QC-passing) single cells from each cell line in each treatment condition, adding a ‘pseudo-count’ of 1, and normalizing counts across cell lines per condition. These relative abundance estimates were averaged across samples for each treatment condition to compute the log2-fold-change difference between drug-treated and control relative cell line abundances.
For selective compounds, cell cycle effects were also well-correlated with measured viability effects, such that drugs typically had larger effects in more sensitive cell lines (FIG. 18).

For another experiment, the system named is cancer cell lines. The conditions noted are these: GDSC and PRISM drug sensitivity data; cited from earlier work.
For experiment [3], the system named is pools of cancer cell lines. Description: Single-cell heterogeneity analysis of drug responses (clustering of scRNA-seq profiles). It counts as cell-based, human. The conditions noted are these: lung cell line IALM, 24 hours post-treatment. An excerpt:
Specifically, the edgeR quasi-likelihood approach was used (Lun et al. 2016), following the pipeline in Soneson et al. 2018, with the cell detection rate (the fraction of genes with non-zero reads detected) included as a covariate.
To identify subpopulations of bortezomib treated cells (FIGS. 4D-4F), Seurat's default methods were used to normalize the data, detect variable genes, and compute PCs (using 5000 most variable genes, and 50 PCs). Seurat's default clustering methods were then used to cluster cells for each cell line (using the 20 nearest neighbors, and a clustering resolution parameter of 0.25).
To identify sub-populations of cells from a given cell line in a consistent fashion across baseline and treatment conditions (for analysis and presentation in FIG. 19), the following procedure was employed. After restricting to cells from the target cell line, the scTransform method (Hafemeiester et al. 2019) was used to normalize the data, identify 5,000 variable genes, and regress out experimental condition as a covariate to align clusters across conditions. Seurat's default clustering methods (using the top 10 PCs, 20 nearest neighbors, and a clustering resolution parameter of 0.25) were then used to identify clusters jointly across treated and control cells.

For the next experiment, the system named is pool of 24 cell lines. Description: Trametinib time course: MIX-Seq combined with Cell Hashing. It counts as cell-based, human. The procedure: For the trametinib time course experiment, cells were treated with trametinib with a staggered dosing schedule so all timepoints could be collected simultaneously. Cells were plated 19 hours prior to the first drug treatment, corresponding to the 48 hour time point. Cells were harvested for 10× capture ˜67 hours after initial seeding.
Cell Hashing (Stoeckius et al., 2018) was performed using the cell harvest method described above with the following changes. All steps were performed on ice. Harvested cells were resuspended in Cell Hashing Staining Buffer (lx PBS with 2% BSA and 0.02% Tween) prior to cell counting. Samples were counted in duplicate with two technical replicates by Countess (Life Technologies) to estimate total cell number. Up to 1,000,000 cells (range 3e5-1e6 cells) were resuspended in 100 microliters of Cell Hashing Staining Buffer. Cells were blocked with 10 microliters of Human TruStain FcX blocking solution (BioLegend) for 10 minutes at 4° C. 100 microliter cell suspensions in Cell Hashing Staining Buffer were then incubated with 2 μL of the appropriate BioLegend TotalSeq™-A Hashing antibody A Hashing antibody (a 1:50 dilution, using a total of 1 μg of antibody per cell suspension). TotalSeq™-A anti-human Hashtag antibodies #4-10 and 12-15 (product codes: 394607, 394609, 394611, 394613, 394615, 394617, 394619, 394623, 394625, 394627, 394629) were used. Cells were washed three times with 0.5 mL of Cell Hashing Staining Buffer and filtered through low volume 40 μm cell strainers (Flowmi). All cell suspensions were recounted to achieve a uniform concentration of 1,500 cells per microliter before pooling for 10× capture. A detailed general protocol is available (www.protocols.io/private/4AC0F6594480B498D8B60EAF6F518E66).
Classification of single-cell treatment conditions, as well as doublet classification, from the hashtag read counts data were performed using DemuxEM (Gaublomme et al. 2019), with default parameters.
The same approach described above was used to estimate the viability-related and viability-independent components of the response at each time point post-trametinib treatment. As substantial transcriptional changes across time points after DMSO-treatment were not observed […], data across DMSO conditions was pooled for analysis.
Leveraging this, responses of a pool of 24 cell lines to trametinib were measured along five time points, ranging from 3 to 48 hours post-treatment, using Cell Hashing to multiplex treatment conditions (FIG. 5A). As controls, DMSO-treated samples were included at each of the 5 time points, in addition to untreated samples, for a total of 11 conditions. Hashtag reads provided robust labeling of treatment conditions, with good tagging efficiency across all cell lines (FIGS. 21A and 21B). Since substantial differences in DMSO-treated cells were not observed across time points (FIG. 22), they were pooled together for subsequent analysis, yielding a total of 13,713 clearly-tagged single cells across all treatment conditions and cell lines.

The mark [4] stands for this setting: 99 cell-line pool, 24 hours post-treatment.
Setting [5] is: integrating across all cell lines.

Turning to `Cc1c2c(nn1C)CSCc1cc(n(C)n1)CSc1cc(c3ccccc3c1)OCCCc1c(C(=O)O)n(C)c3c-2c(Cl)ccc13` [AZD5591], the “robust transcriptional response signature” value in experiment [1] (6 and/or 24 hours post-treatment) is listed as “did not produce strong and/or selective transcriptional responses; also recorded: did not produce robust transcriptional response signatures; also recorded: a robust transcriptional response to the drug was not observed”. Also, the “drug-induced change in relative cell abundance versus measured drug sensitivity” value in experiment [2] was “this relationship was observed most strongly”. Moreover, the “long-term viability response across cell lines” value with cancer cell lines is on record as “strong selective viability responses”.

On to `CC(=O)Nc1cccc(-n2c(=O)n(C3CC3)c(=O)c3c(Nc4ccc(I)cc4F)n(C)c(=O)c(C)c32)c1` [trametinib], for which, in experiment [1] (setting [4]), the “viability-independent response component (β0)” value is “strong down-regulation of MAPK signaling genes, including EGR1, ETV4/5, DUSP4/5/6, and SPRY2/4, KRAS signaling pathways, and TNF-alpha signaling, as well as up-regulation of the interferon response”; the “viability-related response component (β1)” value was “strong down-regulation of cell-cycle processes”. Besides, the “difference in response between two baseline subpopulations” value in experiment [3] was “subtle but significant differences”. Also, the EGR1 expression entry with pool of 24 cell lines (3 hours after treatment, sensitive cell line RCM1 and insensitive line TEN) is on record as “dramatically down-regulated”. In addition, in the experiment with pool of 24 cell lines (setting [5]), the “time at which viability-independent down-regulation of the KRAS signaling pathway emerged” value is 3 hours after treatment; the “time at which viability-related down-regulation of cell cycle genes started” value is 24 hours after treatment; the “time of maximal down-regulation of viability-independent genes such as EGR1 and DUSP6” value was 3 hours post-treatment. In the experiment on pool of 24 cell lines (sensitive line RCM1 vs insensitive line TEN, time course 3 to 48 hours), the MCMI expression entry was “selectively down-regulated only in the sensitive line RCM1, and only after 12-24 hours post-treatment”. Also, the “time of selective down-regulation of GINS2, E2F1 and MCM4 in sensitive cell lines” value with pool of 24 cell lines (viability-related response) was 12-24 hours post-treatment.
